Columns and labels:
bFGF [1] = target: T1, bFGF (Homo sapiens, UniProt P09038); assay: Evaluation of bFGF stabilization in Lonza serum-free medium (ELISA); assay type: biochemical; conditions: for effectiveness ELISA: effectiveness in ELISA evaluation of mesenchymal stem cells (medium), 4° C. control ratio
T1 construct: purchased Lonza (via TAKARA BIO INC.) Ser. No. 00/190,632
How it was run: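 Compound in PBS diluted 10-fold into serum-free medium and held sealed at 37 °C for 7 days (some sets 3 days). Remaining bFGF quantified by human bFGF sandwich ELISA against a standard curve. Controls were compound-free PBS-medium kept at 37 °C or 4 °C for the same period.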

[2] = tested on: Human bone marrow-derived mesenchymal stem cells; assay: Mesenchymal stem cell proliferation system (cell number by DNA quantification); conditions: for effectiveness cells: growth of mesenchymal stem cell, control ratio
Experimental: Human bone marrow-derived mesenchymal stem cells (Lonza, Human Mesenchymal Stem Cell) cultured in mesenchymal stem cell-dedicated medium (Lonza, MSCGM) or Dulbecco's Modified Eagle Medium (Invitrogen, GIBCO D-MEM) containing inactivated fetal bovine serum (Invitrogen, GIBCO FBS) and penicillin-streptomycin (Sigma-Aldrich Co. LLC.) were cultured in exchanged Lonza serum-free medium. The mesenchymal stem cells thus-acclimated to serum-free culture were suspended in Lonza serum-free medium, and seeded on a 24 well culture plate (Nippon Becton Dickinson Company, Ltd., Falcon culture plate) at 20,000 cells/well or a 6 well culture plate (Nippon Becton Dickinson Company, Ltd., Falcon culture plate) at 50,000 cells/well. Then, a test compound solution after filter sterilization and adjustment to a given concentration was added, and the cells were cultured in an incubator (Thermo Scientific, Forma incubator) under the 5% CO2/37° C. conditions for 7 to 8 days. When the medium exchange was necessary, the medium was exchanged 2 to 3 days after the seeding. In this case, the test compound solution was also added again in the same manner as in seeding. In this case, various compound solutions were added again in the same manner as in seeding. After culturing for 7 to 8 days, the medium was removed and DNA quantification was performed. As a control, the cells were cultured in the same manner in a medium without a test compound and added with phosphate buffered saline.
The medium in the 24 well culture plate was removed, and the cells were washed with phosphate buffered saline. The sodium lauryl sulfate solution (500 μl/well) was added, and the mixture was left standing at 37° C. for 4 hours. The sodium lauryl sulfate solution (1.0 ml) was also added to a cell pellet with a known cell number, and the mixture was left standing at 37° C. for 4 hours. As for the cells in the 24 well culture plate, a part (50 μl) of the lysate was transferred to a 96 well black microplate. The solution used for treating the cell pellets was successively diluted with sodium lauryl sulfate solution and used as solutions for drawing an analytical curve. Also, a part (50 μl) of the solutions for drawing an analytical curve was each transferred to the 96 well black microplate. […] The fluorescence was measured by a microplate reader (excitation wavelength: 355 nm, measurement wavelength: 460 nm) within 5 minutes from the addition. The cell number of the 24 well cell culture plate was calculated from the analytical curve drawn (conversion formula). The evaluation criteria were as follows.

iPS cell 201B7 strain = assay: iPS cell proliferation system (cell number); assay type: cell-based, human; conditions: matrigel, Essential-8 medium
Experimental: The cell proliferation effect of various test compounds was evaluated using artificial pluripotent stem cell (iPS cell). 201B7 strain purchased from iPS Academia Japan, Inc. was grown in a culture container coated with a basal lamina matrix (matrigel manufactured by Nippon Becton Dickinson Company, Ltd., or a fragment containing an active domain of laminin 511 purchased from OSAKA UNIVERSITY) (Becton, Dickinson and Company, Falcon culture petri dish or Falcon culture plate), contained in a feeder-free medium for human ES/iPS cell (ReproCELL Inc, ReproFF2).
In this medium were suspended iPS cells in colony state, and a 2.5- to 3.5-fold diluted amount of the original culture was plated on a 6-well culture plate coated with a basal lamina matrix (Nippon Becton Dickinson Company, Ltd., Falcon culture plate). […] After culturing for 6 to 12 days, the medium was removed, the cells were detached from the culture plate by a trypsin-EDTA (Sigma-Aldrich Ltd.) or TrypLE Select (Invitrogen) treatment and the cell number was measured. The cell number was measured by the method described in “Kaitei Saibou baiyou Nyuumon Note, page 77-83, 2010, YODOSHA CO., LTD.” which is incorporated herein by reference in its entirety.
When the cells were seeded in a dissociation state of the cells (single cell state), a test compound solution after filter sterilization was added to a medium containing Y-27632 (Nacalai Tesque) to a given concentration, and dispensed to a 6 well culture plate. Thereto were plated iPS cells suspended in a medium containing Y-27632 at 100,000 cells/well, and cultured for 6 to 8 days. On the next day of seeding, the medium was exchanged to a medium (without Y-27632) added with the test compound alone. When medium exchange was necessary, the medium was exchanged every 2 or 3 days. […] After culturing for 6 to 8 days, the cell number was measured by a method similar to that mentioned above.
When the evaluation was performed in Essential 8 medium (Invitrogen), which is a different feeder-free medium for iPS cell, iPS cells cultured in a medium obtained by adding human serum albumin (Sigma-Aldrich Co. LLC) to Essential 8 medium were used.

bFGF [3] = target: T1, bFGF; assay: Evaluation of bFGF stabilization in Essential 8 medium (ELISA); assay type: biochemical; conditions: 37° C. for 7 days
How it was run: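 Test compound in PBS diluted 10-fold into serum-free medium (Essential 8 or ReproFF2), held sealed at 37° C for 7 days; remaining bFGF quantified by ELISA against a standard curve. Controls: PBS without compound diluted into each medium, held 7 days at 37° C or 4° C.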

[4] = Measurement of content level of sulfur in test compound (ICP); assay type: physicochemical; conditions: ICPS-8100, evaluation samples containing 0.01 wt % test compound
Text: (§1) The content level of sulfur in the sulfated saccharide is generally not less than 5 wt %, preferably not less than 10 wt %, more preferably not less than 15 wt %, and the upper limit is generally not more than 40 wt %, preferably not more than 35 wt %, more preferably not more than 30 wt %. […] Here, the content level of sulfur is a proportion in wt % of sulfur derived only from the sulfate group in sulfated saccharides, which can be measured by a method known in the field (e.g., rhodizonate method, elemental analysis or luminescent spectral analysis).
as §1, with “polymer” for “saccharide”, “wt” for “wt %, preferably not more than 35 wt %, more preferably not more than 30 wt”, “in” for “derived only from”, “the” for “the sulfate group in”, “polymer,” for “saccharides,”, “such as” for “(e.g.,”
The relationship between the content level of sulfur in a test compound (sulfur content) and the cell proliferation promoting effect was examined. The sulfur content was measured using ICPS-8100 manufactured by SHIMADZU CORPORATION and analyzed using ICPS-8000 series Ver1.03. As the reference standard of sulfur, the standard for ICP-MS manufactured by Accu Standard was used. Sulfur reference standard solutions (0, 1, 10, 30, 50 ppm) were prepared, and the sulfur content of the evaluation samples containing 0.01 wt % test compound was measured by an analytical curve method.

[5] = Lonza serum-free medium, 37° C. for 7 days, test compound 25 ng/ml
[6] = Lonza serum-free medium, 37° C. for 7 days, test compound 250 ng/ml
[7] = Lonza serum-free medium, 37° C. for 7 days, test compound 25 μg/ml
[8] = Lonza serum-free medium, 37° C. for 7 days, test compound 250 μg/ml

T1 sequence (P09038 143-288): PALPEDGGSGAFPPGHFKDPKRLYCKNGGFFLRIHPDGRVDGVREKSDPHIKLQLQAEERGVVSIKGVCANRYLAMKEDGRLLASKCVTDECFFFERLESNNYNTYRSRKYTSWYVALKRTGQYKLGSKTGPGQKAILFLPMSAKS

| Substance | bFGF concentration relative to that of 4° C. control (ELISA) (bFGF [1]; [5]) | bFGF concentration relative to that of 4° C. control (ELISA) (bFGF [1]; [6]) | bFGF concentration relative to that of 4° C. control (ELISA) (bFGF [1]; [7]) | bFGF concentration relative to that of 4° C. control (ELISA) (bFGF [1]; [8]) | effectiveness ELISA (bFGF [1]) | effectiveness cells [2] | number of cells relative to control (iPS cell 201B7 strain; test compound 25 ng/ml) | number of cells relative to control (iPS cell 201B7 strain; test compound 250 ng/ml) | concentration showing a suppressive effect on a decrease in the bFGF concentration of the medium (bFGF [3]) | bFGF concentration relative to that of 4° C. control (ELISA) (bFGF [3]; test compound 250 pg/ml) | bFGF concentration relative to that of 4° C. control (ELISA) (bFGF [3]; test compound 25 ng/ml) | bFGF concentration relative to that of 4° C. control (ELISA) (bFGF [3]; test compound 250 ng/ml) | bFGF concentration relative to that of 4° C. control (ELISA) (bFGF [3]; test compound 25 μg/ml) | bFGF concentration relative to that of 4° C. control (ELISA) (bFGF [3]; test compound 250 μg/ml) | sulfur content Found (inorganic analysis) [4] | also measured |
| --- | --- | --- | --- | --- | --- | --- | --- | --- | --- | --- | --- | --- | --- | --- | --- | --- |
| maltoheptaose SO3Na | + (bFGF concentration was not less than 30% and less than 50% relative to that of 4 °C control) | x (bFGF concentration was less than 10% relative to that of 4 °C control) | +++ (bFGF concentration was not less than 70% relative to that of 4 °C control) | ++ (bFGF concentration was not less than 50% and less than 70% relative to that of 4 °C control) | +++ (+++ 70%<) | ⊚ (⊚ not less than 120%) | ⊚ (not less than 120%: ⊚) | — (100%-50%: —) | not less than 250 ng/ml | x (bFGF concentration was less than 10% relative to that of 4 °C control) | x (bFGF concentration was less than 10% relative to that of 4 °C control) | + (bFGF concentration was not less than 30% and less than 50% relative to that of 4 °C control) | +++ (bFGF concentration was not less than 70% relative to that of 4 °C control) | +++ (bFGF concentration was not less than 70% relative to that of 4 °C control) | 16 wt % | concentration showing a suppressive effect on a decrease in the bFGF concentration in the medium (bFGF [1]; Lonza serum-free medium, 37° C. for 3 days): not less than 25 ng/ml; bFGF concentration relative to that of 4° C. control (ELISA) (bFGF [1]; Lonza serum-free medium, 37° C. for 3 days, test compound 25 ng/ml): − (bFGF concentration was not less than 10% and less than 30% relative to that of 4 °C control); bFGF concentration relative to that of 4° C. control (ELISA) (bFGF [1]; Lonza serum-free medium, 37° C. for 3 days, test compound 250 ng/ml): ++ (bFGF concentration was not less than 50% and less than 70% relative to that of 4 °C control); bFGF concentration relative to that of 4° C. control (ELISA) (bFGF [1]; Lonza serum-free medium, 37° C. for 3 days, test compound 25 μg/ml): ++ (bFGF concentration was not less than 50% and less than 70% relative to that of 4 °C control); bFGF concentration relative to that of 4° C. control (ELISA) (bFGF [1]; Lonza serum-free medium, 37° C. for 3 days, test compound 250 μg/ml): ++ (bFGF concentration was not less than 50% and less than 70% relative to that of 4 °C control); concentration showing promoted cell proliferation as compared to the control ([2]; mesenchymal stem cells, Lonza serum-free medium): 250 ng/mL |
| maltotriose SO3Na | x (bFGF concentration was less than 10% relative to that of 4 °C control) | x (bFGF concentration was less than 10% relative to that of 4 °C control) | + (bFGF concentration was not less than 30% and less than 50% relative to that of 4 °C control) | +++ (bFGF concentration was not less than 70% relative to that of 4 °C control) | +++ (+++ 70%<) | ⊚ (⊚ not less than 120%) | ◯ (not less than 100%: ◯) | ◯ (not less than 100%: ◯) | not less than 250 ng/ml | x (bFGF concentration was less than 10% relative to that of 4 °C control) | x (bFGF concentration was less than 10% relative to that of 4 °C control) | − (bFGF concentration was not less than 10% and less than 30% relative to that of 4 °C control) | +++ (bFGF concentration was not less than 70% relative to that of 4 °C control) | +++ (bFGF concentration was not less than 70% relative to that of 4 °C control) | 13 wt % | – |

— patent publication US10689622B2, “Culture medium for proliferating stem cell, which contains sulfated compound” (AJINOMOTO CO., INC., priority 2012, dated 2020)
